Results published in patent US8247211B2, “Glycopeptide antibiotics” (American Cyanamid Company, priority 2001, dated 2012).

Experiments:
Assay in all cases: In vitro antibacterial evaluation: minimum inhibitory concentration (MIC), broth dilution method
Assay type in all cases: cell-based
[1] = tested on: Enterococcus sp.; settings: 18 hours at 35° C.
Procedure: (§1) The minimum inhibitory concentration (MIC), the lowest concentration of the antibiotic which inhibits growth of the test organism, is determined by the broth dilution method using Muller-Hinton II […] (Baltimore Biological Laboratories) following the recommendations of the National Committee for Clinical Laboratory Standards [Methods for dilution antimicrobial susceptibility tests for bacteria that grow aerobically, approved standard M7-A2, National Committee for Clinical Laboratory Standards, Villanova, Pa].
(§2) An inoculum level of 5×10^5 CFU/mL, and a range of antibiotic concentrations (64-0.06 μg/mL) is used. […] The test organisms include a spectrum of Gram-positive bacteria comprised of Staphylococcus sp., Streptococcus sp. and Enterococcus sp. These organisms include recent clinical isolates that are resistant to methicillin, penicillin and/or vancomycin.

[2] = tested on: Escherichia coli; settings: 18 hours at 35° C.
Procedure: as §1, §2

[3] = tested on: Staphylococcus sp.; settings: for MIC Staphylococcus aureus (ATCC 29213): strain ATCC 29213; for MIC Staphylococcus aureus (GC 1131): strain GC 1131; for MIC Staphylococcus aureus (GC 4541): strain GC 4541; for MIC Staphylococcus aureus (GC 4542): strain GC 4542; for MIC Staphylococcus aureus-SMITH (GC 4543): strain GC 4543; for MIC Staphylococcus aureus (GC 4544): strain GC 4544; for MIC Staphylococcus aureus (GC 4545): strain GC 4545; for MIC Staphylococcus haemolyticus (GC 4546): strain GC 4546; for MIC Coagulase Negative Staphylococcus (GC 4547): strain GC 4547; for MIC Coagulase Negative Staphylococcus (GC 4548): strain GC 4548; for MIC Coagulase Negative Staphylococcus (GC 4549): strain GC 4549; for MIC Coagulase Negative Staphylococcus (GC 4551): strain GC 4551; for MIC Coagulase Negative Staphylococcus (ID-3941): strain ID-3941
Procedure: as §1, §2

[4] = tested on: Streptococcus sp.; settings: 18 hours at 35° C.
Procedure: as §1, §2

[5] = broth dilution, inoculum 5×10^5 CFU/mL
[6] = broth dilution, 18 hours at 35° C.

CC(c1ccccc1)C1NC(=O)CNC(=O)C(CO)NC(=O)C(C(O)C2CNC(=N)N2C2OC(CO)C(O)C(O)C2O)NC(=O)C(C(O)C2CNC(=N)N2)NC(=O)C(Cc2ccc(OC3OC(CO)C(OC4OC5COC6(CC7CCC6(C)C7(C)C)OC5C(O)C4O)C(O)C3O)cc2)NC1=O (stereo not drawn) [Example 215, Cyclo[glycyl-β-methylphenylalanyl-O-[4-O-[4,6-O-(1,7,7-trimethylbicyclo[2.2.1]hept-2-ylidene)hexopyranosyl]hexopyranosyl]tyrosyl-3-(2-iminoimidazolidin-4-yl)seryl-3-(3-hexopyranosyl-2-iminoimidazolidin-4-yl)serylseryl]]
32 µg/mL: MIC Escherichia coli (ATCC 25922) ([2]; Escherichia coli (ATCC 25922)) | MIC Escherichia coli (GC 4559) ([2]; Escherichia coli (GC 4559))
1 µg/mL: MIC Enterococcus faecalis (GC 2242) ([1]; Enterococcus faecalis (GC 2242)) | MIC Enterococcus faecalis (GC 2691) ([1]; Enterococcus faecalis (GC 2691)) | MIC Enterococcus faecalis (GC 3059) ([1]; Enterococcus faecalis (GC 3059)) | MIC Enterococcus faecalis (GC 4552) ([1]; Enterococcus faecalis (GC 4552)) | MIC Enterococcus faecalis (GC 4554) ([1]; Enterococcus faecalis (GC 4554)) | MIC Enterococcus faecalis (GC 6189) ([1]; Enterococcus faecalis (GC 6189)) | MIC Enterococcus faecium (GC 4556) ([1]; Enterococcus faecium (GC 4556)) | MIC Enterococcus faecalis (GC 2242) [1, 5] | MIC Enterococcus faecalis (GC 2691) [1, 5] | MIC Enterococcus faecalis (GC 3059) [1, 5] | MIC Enterococcus faecalis (GC 4552) [1, 5] | MIC Enterococcus faecalis (GC 4554) [1, 5] | MIC Enterococcus faecalis (GC 6189) [1, 5] | MIC Enterococcus faecium (GC 4556) [1, 5] | MIC Escherichia coli (GC 4560) ([2]; Escherichia coli (GC 4560)) | MIC Staphylococcus aureus (GC 3053) ([3]; strain GC 3053) | MIC Staphylococcus aureus (GC 4545) [3]
<0.12 µg/mL: MIC Staphylococcus aureus-SMITH (GC 4543) [3] | MIC Coagulase Negative Staphylococcus (GC 4549) [3] | MIC Streptococcus agalactiae (GC 4564) ([4]; Streptococcus agalactiae (GC 4564)) | MIC Streptococcus pneumoniae (ATCC 6301) ([4]; Streptococcus pneumoniae (ATCC 6301)) | MIC Streptococcus pneumoniae (GC 1894) ([4]; Streptococcus pneumoniae (GC 1894)) | MIC Streptococcus pneumoniae (GC 4565) ([4]; Streptococcus pneumoniae (GC 4565)) | MIC Streptococcus pyogenes (GC 4563) ([4]; Streptococcus pyogenes (GC 4563)) | MIC Streptococcus agalactiae (GC 4564) [4, 5] | MIC Streptococcus pneumoniae (ATCC 6301) [4, 5] | MIC Streptococcus pneumoniae (GC 1894) [4, 5] | MIC Streptococcus pneumoniae (GC 4565) [4, 5] | MIC Streptococcus pyogenes (GC 4563) [4, 5]
0.5 µg/mL: MIC Enterococcus avium (GC 4558) ([1]; Enterococcus avium (GC 4558)) | MIC Enterococcus faecalis (ATCC 29212) ([1]; Enterococcus faecalis (ATCC 29212)) | MIC Enterococcus faecalis (GC 4553) ([1]; Enterococcus faecalis (GC 4553)) | MIC Enterococcus faecium (GC 2243) ([1]; Enterococcus faecium (GC 2243)) | MIC Enterococcus faecium (GC 4557) ([1]; Enterococcus faecium (GC 4557)) | MIC Enterococcus avium (GC 4558) [1, 5] | MIC Enterococcus faecalis (ATCC 29212) [1, 5] | MIC Enterococcus faecalis (GC 4553) [1, 5] | MIC Enterococcus faecium (GC 2243) [1, 5] | MIC Enterococcus faecium (GC 4557) [1, 5] | MIC Staphylococcus aureus (ATCC 29213) [3] | MIC Staphylococcus aureus (GC 1131) [3] | MIC Staphylococcus aureus (GC 3051) ([3]; strain GC 3051) | MIC Staphylococcus aureus (GC 4541) [3] | MIC Staphylococcus aureus (GC 4542) [3] | MIC Staphylococcus aureus (GC 4544) [3] | MIC Staphylococcus haemolyticus (GC 4546) [3] | MIC Coagulase Negative Staphylococcus (GC 4547) [3] | MIC Coagulase Negative Staphylococcus (GC 4548) [3] | MIC Coagulase Negative Staphylococcus (GC 4551) [3]

CC(c1ccccc1)C1NC(=O)CNC(=O)C(CO)NC(=O)C(C(O)C2CNC(=N)N2C2OC(CO)C(O)C(O)C2O)NC(=O)C(C(O)C2CNC(=N)N2)NC(=O)C(Cc2ccc(OC3OC(CO)C(OC4OC(COC(=O)OCc5ccccc5)C(O)C(O)C4O)C(O)C3O)cc2)NC1=O (stereo not drawn) [Example 101a, Cyclo[glycyl-β-methylphenylalanyl-O-[4-O-[6-O-[(phenylmethoxy)carbonyl]hexopyranosyl]-hexopyranosyl]tyrosyl-3-(2-iminoimidazolidin-4-yl)seryl-3-(3-hexopyranosyl-2-iminoimidazolidin-4-yl)serylseryl]]
<0.5 µg/mL: MIC Streptococcus pneumoniae (GC 4565) ([4]; broth dilution, 5×10^5 CFU/mL)
1 µg/mL: MIC Staphylococcus haemolyticus (GC 4546) [3] | MIC Staphylococcus haemolyticus (GC 4546) [3, 6] | MIC Coagulase Negative Staphylococcus (GC 4547) [3] | MIC Coagulase Negative Staphylococcus (GC 4547) [3, 6] | MIC Coagulase Negative Staphylococcus (GC 4548) [3] | MIC Coagulase Negative Staphylococcus (GC 4548) [3, 6] | MIC Coagulase Negative Staphylococcus (GC 4549) [3] | MIC Coagulase Negative Staphylococcus (GC 4549) [3, 6] | MIC Coagulase Negative Staphylococcus (ID-3941) [3] | MIC Coagulase Negative Staphylococcus (ID-3941) [3, 6] | MIC Streptococcus agalactiae (GC 4564) ([4]; broth dilution, 5×10^5 CFU/mL) | MIC Streptococcus pyogenes (ID-3187) ([4]; broth dilution, 5×10^5 CFU/mL)
16 µg/mL: MIC Enterococccus avium (GC 4558) ([1]; broth dilution, 5×10^5 CFU/mL) | MIC Enterococccus faecalis (ATCC 29212) ([1]; broth dilution, 5×10^5 CFU/mL) | MIC Enterococccus faecalis (GC 4552) ([1]; broth dilution, 5×10^5 CFU/mL) | MIC Enterococccus faecalis (GC 4553) ([1]; broth dilution, 5×10^5 CFU/mL) | MIC Enterococccus faecalis (GC 4554) ([1]; broth dilution, 5×10^5 CFU/mL) | MIC Enterococccus faecium (GC 2243) ([1]; broth dilution, 5×10^5 CFU/mL) | MIC Enterococccus faecium (GC 4556) ([1]; broth dilution, 5×10^5 CFU/mL)
8 µg/mL: MIC Enterococcus faecalis (GC 2242) ([1]; broth dilution, 5×10^5 CFU/mL) | MIC Staphylococcus aureus-SMITH (GC 4543) ([3]; 18 hours at 35° C.) | MIC Staphylococcus aureus-SMITH (GC 4543) [3, 6]
64 µg/mL: MIC Escherichia coli (ATCC 25922) ([2]; 5×10^5 CFU/mL)
4 µg/mL: MIC Staphylococcus aureus (GC 1131) [3] | MIC Staphylococcus aureus (GC 4542) [3] | MIC Staphylococcus aureus (GC 4544) [3] | MIC Staphylococcus aureus (GC 4545) [3]
2 µg/mL: MIC Enterococccus faecium (GC 4557) ([1]; broth dilution, 5×10^5 CFU/mL) | MIC Staphylococcus aureus (ATCC 29213) [3] | MIC Staphylococcus aureus (GC 4541) [3] | MIC Coagulase Negative Staphylococcus (GC 4551) [3] | MIC Coagulase Negative Staphylococcus (GC 4551) [3, 6]
